Results as given in ChEMBL document CHEMBL1151365, “The isolation and identification of several trichothecene mycotoxins from Fusarium heterosporum” (J Nat Prod, 1981).

Tests used:
Assay type in all cases: organism-based
[1] = (§1) Toxicity in Triticum aestivum assessed as inhibition of coleoptiles growth at 1 mM; conditions: Triticum aestivum coleoptiles, read-out: Activity
Oryctolagus cuniculus = organism: Oryctolagus cuniculus; assay: Dermal toxicity in rabbit skin; conditions: in vivo
Triticum aestivum [2] = assay: as §1; conditions: in vivo, 1000 µM
Triticum aestivum [3] = assay: Toxicity in Triticum aestivum assessed as inhibition of coleoptiles growth at 0.1 mM; conditions: in vivo, 100 µM
Triticum aestivum [4] = assay: Toxicity in Triticum aestivum assessed as inhibition of coleoptiles growth at 0.01 mM; conditions: in vivo, 10 µM

SMILES	inhibition at 1000 µM [1] [%]	ED50 (Oryctolagus cuniculus) [µg]	Activity (Triticum aestivum [2])	Activity (Triticum aestivum [3])	Activity (Triticum aestivum [4])
CC(=O)OC[C@]12C[C@H](O)C(C)=C[C@H]1O[C@@H]1[C@H](O)[C@@H](O)[C@@]2(C)[C@]12CO2	59	> 1.28			
CC(=O)OC[C@]12C[C@H](OC(=O)CC(C)C)C(C)=C[C@H]1O[C@@H]1[C@H](O)[C@@H](O)[C@@]2(C)[C@]12CO2 [HT-2 TOXIN]		0.16	Toxic	Toxic	Toxic
CC(=O)OC[C@]12C[C@H](OC(=O)CC(C)(C)O)C(C)=C[C@H]1O[C@@H]1[C@H](O)[C@@H](O)[C@@]2(C)[C@]12CO2		> 1.28	Toxic	Toxic	Toxic
CC1=C[C@H]2O[C@@H]3[C@H](O)[C@@H](O)[C@](C)([C@@]2(CO)C[C@@H]1OC(=O)CC(C)(C)O)[C@]31CO1		> 1.28	Toxic	Toxic	Toxic
CC1=C[C@H]2O[C@@H]3[C@H](O)[C@@H](O)[C@](C)([C@@]2(CO)C[C@@H]1O)[C@]31CO1		> 1.28			
CC(=O)OC[C@]12C[C@H](OC(=O)CC(C)C)C(C)=C[C@H]1O[C@@H]1[C@H](O)[C@@H](OC(C)=O)[C@@]2(C)[C@]12CO2 [T-2 TOXIN]		< 0.16	Toxic	Toxic	Toxic
